Activity calls are given as the source filed them. No cut-off for these calls is given here.
Assays:
[1] = target: Mu-type opioid receptor (Homo sapiens, UniProt P35372); assay: Agonist activity at mu opioid receptor (unknown origin) expressed in HEK293-A cells assessed as inhibition of forskolin-stimulated cAMP accumulation incubated for 30 mins by competition PKA binding assay; type: functional, cell-based
[2] = target: Kappa-type opioid receptor (Homo sapiens, UniProt P41145); assay: Agonist activity at kappa opioid receptor (unknown origin) expressed in HEK293-A cells assessed as inhibition of forskolin-stimulated cAMP accumulation incubated for 30 mins by competition PKA binding assay; type: functional, cell-based; settings: read-out: EC50
[3] = target: T1, Delta-type opioid receptor (Homo sapiens, UniProt P41143); assay: Agonist activity at delta opioid receptor (unknown origin) expressed in HEK293-A cells assessed as inhibition of forskolin-stimulated cAMP accumulation incubated for 30 mins by competition PKA binding assay; type: functional, cell-based
[4] = target: T1, Delta-type opioid receptor; assay: Agonist activity at delta opioid receptor (unknown origin) expressed in HEK293-A cells assessed as inhibition of forskolin-stimulated cAMP accumulation incubated for 30 mins by competition PKA binding assay relative to control; type: functional, cell-based; settings: filed as agonist
[5] = target: T2, Neuropeptide FF receptor 1 (Homo sapiens, UniProt Q9GZQ6); assay: Agonist activity at NPFFR1 (unknown origin) expressed in HEK293-A cells assessed as inhibition of forskolin-stimulated cAMP accumulation incubated for 30 mins by competition PKA binding assay; type: functional, cell-based
[6] = target: T2, Neuropeptide FF receptor 1; assay: Agonist activity at NPFFR1 (unknown origin) expressed in HEK293-A cells assessed as inhibition of forskolin-stimulated cAMP accumulation incubated for 30 mins by competition PKA binding assay relative to control; type: functional, cell-based; settings: filed as agonist
[7] = target: T3, Neuropeptide FF receptor 2 (Homo sapiens, UniProt Q9Y5X5); assay: Agonist activity at NPFFR2 (unknown origin) expressed in HEK293-A cells assessed as inhibition of forskolin-stimulated cAMP accumulation incubated for 30 mins by competition PKA binding assay; type: functional, cell-based
[8] = target: T3, Neuropeptide FF receptor 2; assay: Agonist activity at NPFFR2 (unknown origin) expressed in HEK293-A cells assessed as inhibition of forskolin-stimulated cAMP accumulation incubated for 30 mins by competition PKA binding assay relative to control; type: functional, cell-based; settings: filed as agonist
[9] = Half life in 100% mouse plasma at 0.01 mM by RP-HPLC analysis; type: ADME, cell-free
[10] = tested on: Mus musculus; assay: Analgesic activity in icv dosed Kunming mouse by radiant heat tail flick test; type: functional
[11] = tested on: Mus musculus; assay: Analgesic activity in icv dosed Kunming mouse assessed as time duration during which supraspinal antinociception lasted by radiant heat tail flick test; type: functional
[12] = tested on: Mus musculus; assay: Analgesic activity in Kunming mouse assessed as increase in antinociceptive effect at 0.03 pmol, icv pre-treated with 10 nmol, icv NPFF receptor antagonist RF9 by radiant heat tail flick test; type: functional, organism-based
[13] = tested on: Mus musculus; assay: Analgesic activity in sc dosed Kunming mouse by radiant heat tail flick test; type: functional
[14] = tested on: Mus musculus; assay: Analgesic activity in sc dosed Kunming mouse assessed as time duration during which antinociception lasted by radiant heat tail flick test; type: functional
[15] = tested on: Mus musculus; assay: Analgesic activity in Kunming mouse at 8.94 umol/kg, sc pre-treated with 1 mg/kg, sc opioid receptor antagonist naloxone by radiant heat tail flick test; type: functional, organism-based; settings: dose 8.94 µmol/kg
[16] = tested on: Mus musculus; assay: Analgesic activity in Kunming mouse at 8.94 umol/kg, sc pre-treated with 1 mg/kg, sc peripherally restricted opioid receptor antagonist naloxone methiodide by radiant heat tail flick test; type: functional, organism-based; settings: dose 8.94 µmol/kg
[17] = tested on: Mus musculus; assay: Analgesic activity in Kunming mouse at 8.94 umol/kg, sc pre-treated with 5 nmol, icv peripherally restricted opioid receptor antagonist naloxone methiodide by radiant heat tail flick test; type: functional, organism-based; settings: dose 8.94 µmol/kg
[18] = tested on: Mus musculus; assay: Analgesic activity in Kunming mouse at 2.68 umol/kg, sc pre-treated with 1 mg/kg, sc opioid receptor antagonist naloxone by radiant heat tail flick test; type: functional, organism-based; settings: dose 2.68 µmol/kg
[19] = tested on: Mus musculus; assay: Analgesic activity in Kunming mouse at 2.68 umol/kg, sc pre-treated with 1 mg/kg, sc peripherally restricted opioid receptor antagonist naloxone methiodide by radiant heat tail flick test; type: functional, organism-based; settings: dose 2.68 µmol/kg
[20] = tested on: Mus musculus; assay: Analgesic activity in Kunming mouse at 2.68 umol/kg, sc pre-treated with 5 nmol, icv peripherally restricted opioid receptor antagonist naloxone methiodide by radiant heat tail flick test; type: functional, organism-based; settings: dose 2.68 µmol/kg
[21] = tested on: Mus musculus; assay: Analgesic activity in NPFF2 -/- C57BL/6 mouse at 0.89 umol/kg, sc by radiant heat tail flick test relative to wild type mouse; type: functional, organism-based; settings: dose 0.89 µmol/kg
[22] = tested on: Mus musculus; assay: Analgesic activity in NPFF2 -/- C57BL/6 mouse at 0.09 umol/kg, sc by radiant heat tail flick test relative to wild type mouse; type: functional, organism-based; settings: dose 0.09 µmol/kg
[23] = tested on: Mus musculus; assay: Analgesic activity in sc dosed Kunming mouse dosed once daily for 8 consecutive days by radiant heat tail flick test; type: functional, organism-based; settings: time 8.0 day
[24] = Half life in 15% mouse brain at 0.01 mM by RP-HPLC analysis; type: ADME, tissue-based
[25] = Drug level in Kunming mouse plasma at 1 mg/kg, iv after 5 to 240 mins by LC-MS/MS analysis; type: ADME, organism-based; settings: time 5-240 min
[26] = Drug level in Kunming mouse brain at 1 mg/kg, iv after 5 to 240 mins by LC-MS/MS analysis; type: ADME, organism-based; settings: in vivo, time 5-240 min
[27] = Ratio of drug level in brain to plasma in Kunming mouse brain at 1 mg/kg, iv after 5 to 240 mins by LC-MS/MS analysis; type: ADME, organism-based; settings: time 5-240 min, read-out: BPR
[28] = tested on: Mus musculus; assay: Analgesic activity in Kunming mouse at 30 pmol, icv by radiant heat tail flick test; type: functional
[29] = tested on: Mus musculus; assay: Analgesic activity in Kunming mouse at 30 pmol, icv pre-treated with 10 nmol, icv opioid receptor antagonist beta-funaltrexamine by radiant heat tail flick test; type: functional, organism-based
[30] = tested on: Mus musculus; assay: Analgesic activity in Kunming mouse at 0.09 umol/kg, sc by radiant heat tail flick test; type: functional; settings: dose 0.09 µmol/kg
[31] = tested on: Mus musculus; assay: Analgesic activity in icv dosed Kunming mouse dosed once daily for 8 consecutive days by radiant heat tail flick test; type: functional, organism-based; settings: time 8.0 day
[32] = Toxicity in Kunming mouse assessed as effect on motor coordination at 30 pmol, icv by rotarod test; settings: in vivo, icv_or_intrathecal
[33] = Toxicity in Kunming mouse assessed as effect on motor coordination at 0.09 umol/kg, sc by rotarod test; type: organism-based; settings: in vivo, dose 0.09 µmol/kg
[34] = Toxicity in Kunming mouse assessed as increase in total travelled distance at 0.09 umol/kg, sc by open field assay; type: organism-based; settings: in vivo, dose 0.09 µmol/kg
[35] = Toxicity in Kunming mouse assessed as activation of reward circuits at 0.09 umol/kg, sc by CPP test; type: organism-based; settings: in vivo, dose 0.09 µmol/kg
[36] = Toxicity in Kunming mouse assessed as increase in jumping counts after naloxone-injection at 0.09 umol/kg, sc by naloxone-precipitated withdrawal test; type: organism-based; settings: in vivo, dose 0.09 µmol/kg
[37] = Induction of constipation in sc dosed Kunming mouse assessed as inhibition of gastrointestinal motility by charcoal based gastrointestinal motility test; type: organism-based; settings: in vivo
[38] = Safety index, ratio of ED50 for induction of constipation in sc dosed Kunming mouse to ED50 for analgesic activity in sc dosed Kunming mouse; type: organism-based; settings: in vivo, read-out: Ratio ED50

Row | SMILES | EC50 [1] | EC50 [2] | EC50 [3] | Emax [4] | EC50 [5] | Emax [6] | EC50 [7] | Emax [8] | half-life at 10 µM [9] | ED50 [10] | Time [11] | Activity [12] | ED50 [13] | Time [14] | Activity [23] | other results
1 | N=C(N)NCCC[C@H](NC(=O)[C@H](CCC(N)=O)NC(=O)[C@@H]1CCCN1C(=O)[C@H](CS)NC(=O)[C@H](Cc1ccccc1)NC(=O)CNC(=O)[C@@H](CS)NC(=O)[C@@H](N)Cc1ccc(O)cc1)C(=O)N[C@@H](Cc1ccccc1)C(N)=O | 221 nM | 581 nM | 514 nM | 46.1% | 17.5 nM | 78.5% | 532 nM | 46.6% | 27.9 min | 0.6 pmol | 3 h | Active | 0.13 µmol/kg | 3 h | Active | Activity [15]: inactive; Activity [16]: inactive; Activity [17]: Active; Activity [18]: inactive; Activity [19]: inactive; Activity [20]: Active; Activity [21]: Active; Activity [22]: Active
2 | N=C(N)NCCC[C@H](NC(=O)[C@H](CCC(N)=O)NC(=O)[C@@H]1CCCN1C(=O)[C@@H]1CSSC[C@@H](NC(=O)[C@@H](N)Cc2ccc(O)cc2)C(=O)NCC(=O)N[C@@H](Cc2ccccc2)C(=O)N1)C(=O)N[C@@H](Cc1ccccc1)C(N)=O | 43.1 nM | 866 nM | 174 nM | 65.1% | 7.5 nM | 75.9% | 19.2 nM | 53.3% | 53.6 min | 0.014 pmol | 3 h | Active | 0.003 µmol/kg | 4 h | Active | half-life at 10 µM [24]: 173 min; AUC [25]: 63 ng·h/mL; Drug uptake [26]: 3.87 µg·min/g; Kp [27]: 1.02; Activity [11]: Dose-dependent effect; MPE [28]: 90%; Activity [29]: inactive; Activity [13]: Dose-dependent effect; Activity [30]: 80%; Activity [31]: Active; Activity [32]: Non-Toxic; Activity [33]: Non-Toxic; Activity [34]: Non-Toxic; Activity [35]: Non-Toxic; Activity [36]: Non-Toxic; Activity [37]: Dose-dependent effect; ED50 [37]: 2.25 µmol/kg; selectivity ratio [38]: 750

Reference: ChEMBL document CHEMBL4699661, “Synthesis and Biological Characterization of Cyclic Disulfide-Containing Peptide Analogs of the Multifunctional Opioid/Neuropeptide FF Receptor Agonists That Produce Long-Lasting and Nontolerant Antinociception” (J Med Chem, 2020)
